These results are taken from US20240156796A1, “PHARMACEUTICAL COMPOSITION FOR TREATMENT OR PREVENTION OF STRESS-RELATED DISORDERS” (TOKYO UNIVERSITY OF SCIENCE FOUNDATION, priority 2021, published 2024).

Experiment [1] concerns mouse. Briefly: Mouse contextual fear conditioning test (effect on reconsolidation of fear memories), p.o. before second day test. In kind it is in vivo. As to conditions: 20 mg/kg p.o. two hours before second day test; second and third days; test time 2 minutes; vs solvent group (FIG. 2). The procedure: <Mouse Contextual Fear Conditioning Test (Effect on Reconsolidation of Fear Memories)> Using the same contextual fear conditioning test as Example 41, the effect on the reconsolidation of fear memories was investigated. The test was conducted in accordance with the method described in Non-Patent Document 4. Administration of the compound of Example 7 (20 mg/kg p.o.) or a solvent was conducted two hours prior to placing the mouse in the experimental chamber on the second day. In this test, the test time on the second and third days was set to 2 minutes.

Experiment [2] deals with T1, κ-opioid receptor (Homo sapiens, UniProt P41145).
T1 construct: host or cells: CHO cells
T1 sequence (P41145 whole entry): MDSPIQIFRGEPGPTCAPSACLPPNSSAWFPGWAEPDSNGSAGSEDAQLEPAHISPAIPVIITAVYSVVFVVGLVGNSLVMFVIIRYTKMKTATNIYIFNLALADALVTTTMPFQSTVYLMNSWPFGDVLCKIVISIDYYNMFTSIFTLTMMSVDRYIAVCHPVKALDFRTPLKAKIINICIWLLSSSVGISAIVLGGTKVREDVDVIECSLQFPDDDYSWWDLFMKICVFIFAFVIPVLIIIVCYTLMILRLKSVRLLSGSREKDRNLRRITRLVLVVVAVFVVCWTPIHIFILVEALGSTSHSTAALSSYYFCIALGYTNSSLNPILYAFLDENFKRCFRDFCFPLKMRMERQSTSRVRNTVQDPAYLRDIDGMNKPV
Briefly: Opioid receptor function test (antagonist activity) against 100 nM U-69593. To be noted: antagonist activity vs 100 nM U-69593. Format: cell-based. The procedure:
(§1) Method: Using a Lance Ultra cAMP kit (manufactured by PerkinElmer, Inc.), the investigation was conducted in accordance with the prescribed method. In the evaluations of agonist activity, CHO cells expressing each of the human opioid receptors (δ, μ and κ: accession numbers and catalog numbers listed below) and each test compound were reacted for 30 minutes in an assay buffer (1×HBSS, 1 M HEPES, pH 7.4, 250 mM IBMX (isobutylmethylxanthine), 7.5% BSA) in the presence of 10 μM forskolin. Subsequently, the cAMP detection reagent included in the kit was added, and after 1 hour, a time-resolved fluorescence measurement was performed using an EnVision plate reader (manufactured by PerkinElmer, Inc.). […] The Emax value was calculated as the ratio of the maximum response of the test compound relative to a value of 100% for the maximum response of each control drug.
(§2) Evaluations of antagonist activity relative to the μ- and κ-opioid receptors were conducted using the same method as (1) above. A fixed concentration of each control drug (μ: 30 nM DAMGO, κ: 100 nM U-69593), the test compound and CHO cells expressing each of the human opioid receptors were reacted for 30 minutes in an assay buffer in the presence of 10 μM forskolin. The test compounds were evaluated in a concentration range from 10^−12 to 10^−5 M, and subsequent operations were conducted in the same manner as the agonist activity evaluations. A dose-response curve was determined for each test compound using a value of 100% for the response of each control drug in the absence of the test compound, and the concentration that inhibited 50% of the control drug response (namely, the IC50 value) was calculated.

The test system of experiment [3] is mouse. Briefly: Mouse contextual fear conditioning test (effect on extinction learning of fear memories). In kind it is in vivo. To be noted: 5, 10, 20 mg/kg p.o. two hours before second day test; second and third days; test time 6 minutes; vs solvent group (FIG. 1). The procedure: The effect of the compound of Example 7 on extinction learning of fear memories was investigated in a mouse contextual fear conditioning test. The test was conducted in accordance with the method described in Non-Patent Document 4. Administration of the compound of Example 7 (5, 10, 20 mg/kg p.o.) or a solvent was conducted two hours prior to placing the mouse in the experimental chamber on the second day.

In experiment [4] the test system is mouse. Briefly: Mouse contextual fear conditioning test (effect on reconsolidation of fear memories), s.c. immediately after second day test. In kind it is in vivo. To be noted: 1 mg/kg, 3 mg/kg s.c. immediately after second day test; third day; vs solvent group (FIG. 3).
In experiment [5] the target is T2, μ-opioid receptor (Homo sapiens, UniProt P35372).
T2 construct: host or cells: CHO cells
T2 sequence (P35372 whole entry): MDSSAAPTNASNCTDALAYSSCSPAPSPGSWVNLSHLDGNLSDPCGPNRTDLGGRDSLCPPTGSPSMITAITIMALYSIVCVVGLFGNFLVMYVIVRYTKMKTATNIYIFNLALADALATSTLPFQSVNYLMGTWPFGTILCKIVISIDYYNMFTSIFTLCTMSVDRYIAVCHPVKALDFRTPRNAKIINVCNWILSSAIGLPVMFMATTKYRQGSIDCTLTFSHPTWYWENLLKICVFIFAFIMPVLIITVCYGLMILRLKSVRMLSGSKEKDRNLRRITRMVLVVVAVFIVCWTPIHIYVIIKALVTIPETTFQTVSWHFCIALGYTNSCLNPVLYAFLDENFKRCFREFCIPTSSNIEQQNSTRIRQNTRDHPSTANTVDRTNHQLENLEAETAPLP
Kind of experiment: Opioid receptor function test (antagonist activity) against 30 nM DAMGO. Format: cell-based. To be noted: antagonist activity vs 30 nM DAMGO. As for the experimental part:
as §1, §2

Experiment [6] deals with T1, κ-opioid receptor. Kind of experiment: Opioid receptor function test (agonist activity), Lance Ultra cAMP kit, CHO cells expressing human κ-opioid receptor. In kind it is cell-based. To be noted: maximum response not reached, response rate at maximum concentration (10 μM), relative to U-69593, read-out: κ-receptor Emax (*response rate at the maximum concentration, reference value). As for the experimental part: The functional activity of the compounds provided by the present invention relative to μ-, δ- and κ-opioid receptors was investigated.
as §1
SNC80: (+)-4-[(aR)-α-((2S,5R)-4-allyl-2,5-dimethyl-1-piperazinyl)-3-methoxybenzyl]-N,N-diethylbenzamide DAMGO: [D-Ala^2,N-MePhe^4,Gly-ol]enkephalin U-69593: (+)-(5α,7α,8β)-N-methyl-N-[7-(1-pyrrolidinyl)-1-oxaspiro[4.5]dec-8-yl]benzeneacetamide

For experiment [7] the following is noted: animal model, Non-Patent Documents 4 and 5; cited from earlier work.

Regarding `O=C(c1cccc(=O)[nH]1)N1C[C@H]2C[C@@]34CC[C@@H]1[C@@H]2[C@@]31CCN(CC2CC2)[C@@H]4Cc2ccc(O)cc21` [Example 7, 6-((1S,3aR,5aS,6R,11bR,11cS)-14-(cyclopropylmethyl)-10-hydroxy-2,3,3a,4,5,6,7,11c-octahydro-1H-6,11b-(epiminoethano)-1,5a-methanonaphtho[1,2-e]indole-3-carbonyl)pyridin-2(1H)-one], the “fear response (freezing behavior)” value in experiment [1] and in experiment [4] was “significant reduction in fear response” each time. Moreover, the half-maximal inhibitory concentration (IC50) (in general, the concentration that gives 50% inhibition) is 4.6 nM in experiment [2] and 1.3 nM in experiment [5]. Moreover, in experiment [3], the “fear response (freezing behavior, % of test time)” value is “significant reduction in fear response”.
Regarding `Cn1c(C(=O)N2C[C@H]3C[C@@]45CC[C@@H]2[C@@H]3[C@@]42CCN(CC3CC3)[C@@H]5Cc3ccc(O)cc32)cccc1=O` [Example 10, 6-((1S,3aR,5aS,6R,11bR,11cS)-14-(cyclopropylmethyl)-10-hydroxy-2,3,3a,4,5,6,7,11c-octahydro-1H-6,11b-(epiminoethano)-1,5a-methanonaphtho[1,2-e]indole-3-carbonyl)-1-methylpyridin-2(1H)-one], the IC50 in experiment [2] stood at 3.4 nM; in experiment [5], 5.7 nM.
The like results for `Cn1cc(C(=O)N2C[C@H]3C[C@@]45CC[C@@H]2[C@@H]3[C@@]42CCN(CC3CC3)[C@@H]5Cc3ccc(O)cc32)ccc1=O` [Example 9, 5-((1S,3aR,5aS,6R,11bR,11cS)-14-(cyclopropylmethyl)-10-hydroxy-2,3,3a,4,5,6,7,11c-octahydro-1H-6,11b-(epiminoethano)-1,5a-methanonaphtho[1,2-e]indole-3-carbonyl)-1-methylpyridin-2(1H)-one] were, in that order, 3.3 nM and 2.4 nM.
Turning to `O=C(c1cccc[n+]1[O-])N1C[C@H]2C[C@@]34CC[C@@H]1[C@@H]2[C@@]31CCN(CC2CC2)[C@@H]4Cc2ccc(O)cc21` [Example 1, 2-((1S,3aR,5aS,6R,11bR,11cS)-14-(cyclopropylmethyl)-10-hydroxy-2,3,3a,4,5,6,7,11c-octahydro-1H-6,11b-(epiminoethano)-1,5a-methanonaphtho[1,2-e]indole-3-carbonyl)pyridine 1-oxide], the IC50 in experiment [2] came to 3.3 nM; in experiment [5] it was 4.1 nM.
For `O=C(c1cc(=O)cc[nH]1)N1C[C@H]2C[C@@]34CC[C@@H]1[C@@H]2[C@@]31CCN(CC2CC2)[C@@H]4Cc2ccc(O)cc21` [Example 14, 2-((1S,3aR,5aS,6R,11bR,11cS)-14-(cyclopropylmethyl)-10-hydroxy-2,3,3a,4,5,6,7,11c-octahydro-1H-6,11b-(epiminoethano)-1,5a-methanonaphtho[1,2-e]indole-3-carbonyl)pyridin-4(1H)-one], in experiment [6], the Emax at 10 µM is 5.7%.
Regarding `O=C(c1ccc[nH]c1=O)N1C[C@H]2C[C@@]34CC[C@@H]1[C@@H]2[C@@]31CCN(CC2CC2)[C@@H]4Cc2ccc(O)cc21` [Example 3, 3-((1S,3aR,5aS,6R,11bR,11cS)-14-(cyclopropylmethyl)-10-hydroxy-2,3,3a,4,5,6,7,11c-octahydro-1H-6,11b-(epiminoethano)-1,5a-methanonaphtho[1,2-e]indole-3-carbonyl)pyridin-2(1H)-one], the IC50 in experiment [2] was found to be 11.1 nM; in experiment [5], 4.6 nM.
As for `CCn1cc(C(=O)N2C[C@H]3C[C@@]45CC[C@@H]2[C@@H]3[C@@]42CCN(CC3CC3)[C@@H]5Cc3ccc(O)cc32)ccc1=O` [Example 28, 5-((1S,3aR,5aS,6R,11bR,11cS)-14-(cyclopropylmethyl)-10-hydroxy-2,3,3a,4,5,6,7,11c-octahydro-1H-6,11b-(epiminoethano)-1,5a-methanonaphtho[1,2-e]indole-3-carbonyl)-1-ethylpyridin-2(1H)-one], the IC50 in experiment [2] stood at 4 nM; in experiment [5], 2.1 nM.
Regarding `C=CCN1C[C@H](C)N([C@H](c2ccc(C(=O)N(CC)CC)cc2)c2cccc(OC)c2)C[C@H]1C` [SNC80, (+)-4-[(aR)-α-((2S,5R)-4-allyl-2,5-dimethyl-1-piperazinyl)-3-methoxybenzyl]-N,N-diethylbenzamide], in experiment [7], the “anxiolytic effect through the extinction of anxiety or fear memories” value is reported as “exhibited an anxiolytic effect”.
